According to PMC11542830, “3-nitropyridine analogues as novel microtubule-targeting agents” (PLOS ONE, 2024):

Key:
[1] = system: RXF 393; test: NCI60 5-dose screen, RXF 393; assay type: cell-based; settings: Homo sapiens, renal cancer, Fig 1D, read-out: Log10 GI50 (RXF 393) (converted)
Method: (§1) The screening methodology used in the NCI60 Cell 5-Doses screen is described in detail at https://dtp.cancer.gov/discovery_development/nci-60/methodology.htm. Briefly, cells are seeded in 96 well plates at an appropriate density and incubated for 1 day. After 1 day, some of the plates are processed to determine a time zero density. To the remaining plates, compounds are added over a 5-log M concentration range (1 log dilutions from 10^-4M to 10^-8M). Plates are incubated for two additional days, then fixed and stained with sulforhodamine B. Growth inhibition is calculated relative to cells without drug treatment and the time zero control. The GI50 is the concentration of a compound that causes 50% growth inhibition, relative to the no drug control.

[2] = system: UACC-257; test: NCI60 5-dose screen, UACC-257; assay type: cell-based; settings: Homo sapiens, melanoma, Fig 1D, read-out: Log10 GI50 (UACC-257) (converted)
Method: as §1

`Cc1cc(C)cc(Nc2ccc([N+](=O)[O-])c(NCCN3CCOCC3)n2)c1` [Compound 4AZA2891, 6-(3,5-dimethylanilino)-2-(2-morpholinoethylamino)-3-nitropyridine] showed a GI50 [1] of 38.9 nM and a GI50 [2] greater than 100000 nM.
